Structures are written as SMILES.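 96-well plates; 48 h exposure; 5 concentrations. Endpoints by linear interpolation between flanking doses. Not reached: highest tested concentration assigned. GI50 is the concentration that inhibits growth by half.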 Calls of active or inactive are those of the source. Cut-off read from the data, not from the text of the source: active = GI50 up to about 1.1 µM and inactive = higher.

Among the test systems are Hs-578T; BT-549; T47D.
Common to all, as to test: growth of human tumour cells (NCI), 48 h

For `O=C(O)C[S+]([O-])c1ccc2c3c(cccc13)C(=O)c1ccccc1-2` (stereo not given), the GI50 in the test on Hs-578T, with BT-549 and with T47D was > 100 µM (inactive) in each case.

With `O=C(O)/C=C\C(=O)Nc1ccc2c(c1)-c1ccccc1C2`, the GI50 with Hs-578T was 44.5 µM (inactive); with BT-549, 39.8 µM (inactive); in the test on T47D, 88.1 µM (inactive).

For the compound `OCc1cn(Cc2ccccc2)c2ccccc12`, the GI50 in the test with Hs-578T is 12.9 µM (inactive); in the test on BT-549, 6.59 µM (inactive); with T47D, < 0.0411 µM (active).

For the compound `CCCCCCCCCCCC1NC(N)=NC(CCCO)=C1C(=O)OC` (stereo not given), the results for the GI50 in the test with Hs-578T, in the test with BT-549 and in the test with T47D were 1.92 µM (inactive), 4.67 µM (inactive) and 5.09 µM (inactive), respectively.

With `CC(=C\c1ccccc1)/C=C(\C#N)C(N)=O`, the GI50 in the test with Hs-578T and with T47D was > 10 µM (inactive) each time.

As to `NC(=O)C(C(N)=O)=C(O)/C(O)=C/C(=O)c1ccccc1`, the GI50 in the test with Hs-578T is > 100 µM (inactive); with BT-549 it was 48.5 µM (inactive); in the test on T47D it was > 100 µM (inactive).

For `Cn1nc(/C=C\C(=O)N2CC(CCl)c3c2cc(N)c2ccccc32)cc1/C=C/C(=O)N1CC(CCl)c2c1cc(N)c1ccccc21` (stereo not given), the GI50 with BT-549 and with T47D was < 0.01 µM (active) in each case.

As to `C=C1C[C@@H](O)[C@@H](Br)C(C)(C)[C@@]12C=CC(O)(CBr)CC2` (stereo not given in full), the GI50 in the test with Hs-578T is 45.6 µM (inactive); in the test with BT-549 it was 29.9 µM (inactive); in the test with T47D, > 100 µM (inactive).

In the case of `O=C(O)C1CC(C2CCCCN2)CN2CCCCC12` (stereo not given), the GI50 with Hs-578T, in the test with BT-549 and in the test with T47D was > 100 µM (inactive) each time.

For the compound `CCn1c(=O)c2nc(SC)sc2n(-c2ccccc2)c1=S`, the results for the GI50 with Hs-578T and with T47D were 40.3 µM (inactive) and 55.7 µM (inactive), respectively.

For the compound `COC(=O)C1CCC(=O)N1CN(C(C)=O)c1ccccc1Cl` (stereo not given), the GI50 with Hs-578T and in the test on T47D was > 100 µM (inactive) in each case.

For `Cc1cc2c(cc1C)N1C(Cl)=C3CCCCC3=C(C#N)C1N2` (stereo not given), the GI50 in the test with Hs-578T was 7.85 µM (inactive); in the test on BT-549 it was 2.45 µM (inactive); in the test with T47D, 12.2 µM (inactive).

As for `[N-]=[N+]=Nc1c([N+](=O)[O-])c(=O)n(-c2ccccc2)c2ccccc12`, the GI50 in the test with Hs-578T was 20 µM (inactive); in the test with T47D, 29.1 µM (inactive).

In the case of `O=C1C(/C=C/c2ccc(Cl)cc2)=NNC2N1N=C1NC(=O)C3(NN12)c1ccccc1-c1ccccc13` (stereo not given), the figures for the GI50 with Hs-578T and in the test with BT-549 were 65.6 µM (inactive) and > 100 µM (inactive), respectively.

As to `C=CCOC(=O)CC[C@H](NC(=O)[C@@H](CCC(F)(F)F)Cc1ccc(O)cc1)C(=O)OCC=C`, the GI50 in the test with Hs-578T was 36.7 µM (inactive); with BT-549 it was > 100 µM (inactive); with T47D it was 20.6 µM (inactive).

With `CC(=O)c1cccn1/C=C(\OC(=O)OC(C)(C)C)c1ccc[nH]1`, the GI50 in the test with Hs-578T was > 100 µM (inactive); in the test on BT-549, 60.7 µM (inactive); with T47D, 33 µM (inactive).

Regarding `O=C(COc1ccc(OCC(=O)N2C(=O)CC(=O)N(c3ccccc3)C2=S)cc1)N1C(=O)CC(=O)N(c2ccccc2)C1=S`, the GI50 with BT-549 was 78.7 µM (inactive).

Take `O=C(CN1CCOCC1)c1ccc2c(c1)oc(=O)n2CCN1CCOCC1`: the GI50 with Hs-578T was > 100 µM (inactive).

For the compound `N#Cc1c(N)nc(SCc2ccccc2)c(C#N)c1-c1ccc(O)cc1`, the GI50 is 29.2 µM (inactive) in the test on Hs-578T, 11.6 µM (inactive) in the test with BT-549 and 5.96 µM (inactive) with T47D.

As for `CN1C(=O)c2ccccc2NC(=O)C12O[C@@H]2c1ccccc1` (stereo not given in full), the GI50 with Hs-578T, with BT-549 and with T47D was > 100 µM (inactive) each time.

`C=CCc1cccc2cc(C(=O)Nc3nc(C45CC6CC(CC(C6)C4)C5)cs3)c(=O)oc12`: the GI50 was 16.4 µM (inactive) in the test with Hs-578T and 70 µM (inactive) in the test with BT-549.

Consider `Cc1cc(=O)oc2c3c(ccc12)OC(c1ccc(Br)cc1)CC3=O` (stereo not given), for which the GI50 in the test on Hs-578T is 2.56 µM (inactive); in the test on BT-549, 3.03 µM (inactive); with T47D it was 0.177 µM (active).

As for `CC(C)CC(NC=O)C(=O)NC(Cc1ccccc1)NC(=O)CNC(=O)C(C)NC(=O)OC(C)(C)C` (stereo not given), the GI50 in the test on Hs-578T, with BT-549 and with T47D was > 100 µM (inactive) in each case.

`N#Cc1ncc(C(Cl)Cl)nc1Cl`: the GI50 was 4.66 µM (inactive) in the test on Hs-578T, 1.84 µM (inactive) in the test on BT-549 and 1.76 µM (inactive) with T47D.

Regarding `N#Cc1nc(-c2cnccn2)oc1N`, the GI50 in the test with Hs-578T is > 100 µM (inactive).

For `CC1COC(c2cn[nH]c2C(N)=O)C1O` (stereo not given), the GI50 with Hs-578T, with BT-549 and in the test with T47D was > 100 µM (inactive) throughout.
